# Assay results: publication PMC10361207, “Cannabinoid and Opioid Receptor Affinity and Modulation of Cancer-Related Signaling Pathways of Machaeriols and Machaeridiols from Machaerium Pers” (Molecules, 2023)
# Molecular target: T1, CB1 receptor (Homo sapiens, UniProt P21554)
# T1 construct: expressed in transfected cells; host or cells: HEK293 (ATCC), stably transfected; membranes
# Assay: Competitive radioligand binding assay, CB1
# Details: 10 μM; [3H]-CP55,940
# Method: (§1) HEK293 cells stably transfected with δ, κ and μ opioid subtypes were a generous gift from Roth Laboratories (University of North Carolina at Chapel Hill, N.C., USA). CB and opioid cells were maintained as previously described.
# (§2) Membranes were purified by first washing the cells with cold PBS and scraping the cells into cold 50 mM Tris-HCl, pH 7.4 buffer, which was centrifuged at 5200× g for 10 min at 4 °C; next, the supernatant was discarded, and the pellet was washed with more Tris-HCl buffer, homogenized via a Sonic Dismembrator (Fisher Scientific, Pittsburgh, PA, USA) and then centrifuged at 24,000× g for 40 min at 4 °C. Finally, the pellet was re-suspended in cold 50 mM Tris-HCl buffer, aliquoted into 2 mL vials and stored at −80 °C. The total membrane protein concentration was measured using a Pierce BCA Protein Assay Kit (Thermo Scientific, Rockford, IL, USA) as per the manufacturer’s protocol.
# (§3) Cannabinoid and opioid competitive radioligand binding assays were performed as previously described. Saturation experiments were performed for all the receptors to determine the receptor concentration and radioligand dissociation constant (Kd) for the membrane. Percent displacements were evaluated for all the cannabinoid and opioid subtypes with a triplicate of a fixed concentration (10 µg/mL for extracts and fractions and 10 μM for purified compounds). […] Control/test compounds were dissolved in DMSO at 10 μg/mL for extracts and fractions and 10 μM for purified compounds. […] The percent displacement was calculated to represent the ability of the samples to displace the radioligand binding for a given cannabinoid or opioid receptor subtype.
# (§4) The percent displacement was calculated as follows: 100−binding of compound−nonspecific binding/specific binding×100
# (§5) The competitive binding assays were performed using 12 serial dilutions of each compound ranging from 0.002 to 300 μM (control compounds were serially diluted from 10 μM to 0.06 nM). The cannabinoid assays were incubated for 90 min at 37 °C with gentle agitation. The opioid assays were incubated for 60 min at room temperature. Bound radioligands were collected on GF/C (cannabinoid) or GF/B plates (opioid) and washed 10 times with ice-cold 50 mM Tris-HCl (pH 7.4)/0.1% BSA (cannabinoid) or ice-cold 50 mM Tris-HCl (pH 7.4) (opioid). Radiodetection was measured with 50 µL (cannabinoid) or 25 µL (opioid) of MicroScint^TM-20 on a TopCount NXT HTS Microplate Scintillation Counter (PerkinElmer, Waltham, MA, USA). The IC50 and Ki values were calculated via a non-linear curve fit model using GraphPad Prism 5.0 software (GraphPad Software, Inc., San Diego, CA, USA). Each compound was tested in triplicate unless stated otherwise.
# T1 sequence (P21554 whole entry): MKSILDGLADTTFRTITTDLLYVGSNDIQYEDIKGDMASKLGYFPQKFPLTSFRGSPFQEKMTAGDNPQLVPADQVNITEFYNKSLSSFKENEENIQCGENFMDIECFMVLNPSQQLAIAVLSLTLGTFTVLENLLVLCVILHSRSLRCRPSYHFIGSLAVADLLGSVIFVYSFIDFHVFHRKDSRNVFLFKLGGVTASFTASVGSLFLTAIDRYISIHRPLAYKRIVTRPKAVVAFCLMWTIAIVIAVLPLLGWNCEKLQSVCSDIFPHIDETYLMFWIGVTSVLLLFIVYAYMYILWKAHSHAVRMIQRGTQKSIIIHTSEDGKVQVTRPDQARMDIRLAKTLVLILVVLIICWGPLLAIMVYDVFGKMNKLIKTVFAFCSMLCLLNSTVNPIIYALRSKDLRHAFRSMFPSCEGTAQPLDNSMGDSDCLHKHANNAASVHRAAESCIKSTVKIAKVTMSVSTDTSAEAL
row,SMILES,"Percent displacement, CB1"
1,"C=C(C)[C@H]1CC[C@H](C)C[C@@H]1c1c(O)cc(/C=C/c2ccccc2)cc1O [compound 5, machaeridiol A]",7.8%

# Molecular target: T2, CB2 receptor (Homo sapiens, UniProt P34972)
# T2 construct: expressed in transfected cells; host or cells: HEK293 (ATCC), stably transfected; membranes
# T2 sequence (P34972 whole entry): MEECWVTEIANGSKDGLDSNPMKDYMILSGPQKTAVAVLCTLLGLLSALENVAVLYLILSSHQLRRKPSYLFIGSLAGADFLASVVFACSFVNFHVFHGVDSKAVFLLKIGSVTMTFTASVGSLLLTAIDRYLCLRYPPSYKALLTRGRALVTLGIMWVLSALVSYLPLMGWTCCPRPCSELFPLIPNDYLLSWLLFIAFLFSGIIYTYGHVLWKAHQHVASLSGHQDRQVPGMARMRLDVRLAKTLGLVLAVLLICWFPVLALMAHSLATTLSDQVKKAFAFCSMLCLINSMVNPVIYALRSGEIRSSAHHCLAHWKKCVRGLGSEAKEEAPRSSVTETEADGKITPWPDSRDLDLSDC
# Assay: Competitive radioligand binding assay, CB2
# Details: 10 μM; [3H]-CP55,940
# Method: as §1, §2, §3, §4, §5
row,SMILES,"Percent displacement, CB2"
1,"C=C(C)[C@H]1CC[C@H](C)C[C@@H]1c1c(O)cc(/C=C/c2ccccc2)cc1O [compound 5, machaeridiol A]",65.4%

# Same assay, conditions: * tested up to solubility limit; conc. at 33.3 μM and above precipitated; read-out: CB2 Ki ± SEM
row,SMILES,Ki
1,"C=C(C)[C@H]1CC[C@H](C)C[C@@H]1c1c(O)cc(/C=C/c2ccccc2)cc1O [compound 5, machaeridiol A]",> 1.77 µM

# Molecular target: T3, δ opioid receptor (Homo sapiens, UniProt P41143)
# T3 construct: host or cells: HEK293, stably transfected; membranes
# T3 sequence (P41143 whole entry): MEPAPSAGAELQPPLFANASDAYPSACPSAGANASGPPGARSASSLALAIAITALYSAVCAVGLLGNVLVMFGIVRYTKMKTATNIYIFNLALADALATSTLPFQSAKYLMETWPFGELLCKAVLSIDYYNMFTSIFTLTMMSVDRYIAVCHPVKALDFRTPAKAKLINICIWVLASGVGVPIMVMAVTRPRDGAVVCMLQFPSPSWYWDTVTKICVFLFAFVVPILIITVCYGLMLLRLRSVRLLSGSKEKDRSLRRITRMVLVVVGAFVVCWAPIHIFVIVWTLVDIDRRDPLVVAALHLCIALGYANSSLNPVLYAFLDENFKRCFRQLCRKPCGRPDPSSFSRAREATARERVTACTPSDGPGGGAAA
# Assay: Competitive radioligand binding assay, δ opioid
# Details: 10 μM; [3H]-enkephalin (DPDPE); read-out: Percent displacement, Δ
# Method: as §1, §2, §3, §4, §5
row,SMILES,inhibition at 10 µM
1,"C=C(C)[C@H]1CC[C@H](C)C[C@@H]1c1c(O)cc(/C=C/c2ccccc2)cc1O [compound 5, machaeridiol A]",43.3%

# Same assay, conditions: NA = not active; read-out: Δ Ki ± SEM
row,SMILES,Ki
1,"C=C(C)[C@H]1CC[C@H](C)C[C@@H]1c1c(O)cc(/C=C/c2ccccc2)cc1O [compound 5, machaeridiol A]",9.41 ± 1.02 µM

# Molecular target: T4, μ opioid receptor (Homo sapiens, UniProt P35372)
# T4 construct: host or cells: HEK293, stably transfected; membranes
# T4 sequence (P35372 whole entry): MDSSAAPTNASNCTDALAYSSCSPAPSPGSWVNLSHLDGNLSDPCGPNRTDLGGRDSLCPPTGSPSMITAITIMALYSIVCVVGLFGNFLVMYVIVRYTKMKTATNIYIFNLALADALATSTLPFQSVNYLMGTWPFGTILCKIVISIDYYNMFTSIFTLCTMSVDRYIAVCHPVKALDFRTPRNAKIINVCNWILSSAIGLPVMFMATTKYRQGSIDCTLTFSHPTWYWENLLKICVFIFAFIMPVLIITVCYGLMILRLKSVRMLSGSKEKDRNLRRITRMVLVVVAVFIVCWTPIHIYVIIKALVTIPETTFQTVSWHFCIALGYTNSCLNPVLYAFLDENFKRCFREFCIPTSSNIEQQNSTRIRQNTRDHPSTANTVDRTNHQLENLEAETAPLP
# Assay: biochemical
# Format: binding
# Details: 10 μM; [3H]-DAMGO
# Method: as §1, §2, §3, §4, §5
row,SMILES,"Percent displacement, µ"
1,"C=C(C)[C@H]1CC[C@H](C)C[C@@H]1c1c(O)cc(/C=C/c2ccccc2)cc1O [compound 5, machaeridiol A]",45.6%

# Same assay, conditions: NA = not active; read-out: μ Ki ± SEM
row,SMILES,Ki
1,"C=C(C)[C@H]1CC[C@H](C)C[C@@H]1c1c(O)cc(/C=C/c2ccccc2)cc1O [compound 5, machaeridiol A]",16.8 ± 3.31 µM

# Test system: not listed separately
# Assay: Cytotoxicity, Neutral Red, SK-MEL
# Format: cell-based
# Details: human, SK-MEL malignant melanoma cells, Na = not active up to 50 µg/mL
# Method: (§6) In vitro cytotoxic activity was determined against five human cancer cell lines—malignant melanoma (SK-MEL), epidermal carcinoma oral (KB), ductal carcinoma breast (BT-549), ovary carcinoma (SKOV-3) and cervical (HeLa) cancer cells—and two non-cancerous kidney cell lines (LLC-PK1 and Vero). All cell lines were obtained from the American Type Culture Collection (ATCC, Rockville, MD, USA). Each assay was performed in 96-well tissue culture-treated microplates. The cells were seeded at a density of 25,000 cells/well and incubated for 24 h. Samples at different concentrations were added, and the cells were incubated again for 48 h. At the end of the incubation, the cell viability was determined using Neutral Red dye according to a modification of the procedure used by Borenfreund et al.. IC50 values were determined from dose–response curves of the percent growth inhibition against test concentrations. Doxorubicin was used as a positive control, while DMSO was used as the negative (vehicle) control.
row,SMILES,IC50 at 48 h
1,"C=C(C)[C@H]1CC[C@H](C)C[C@@H]1c1c(O)cc(/C=C/c2ccccc2)cc1O [compound 5, machaeridiol A]",> 50 mg/L

# Test system: not listed separately
# Assay: Cytotoxicity, Neutral Red, KB
# Format: cell-based
# Details: human, KB epidermal carcinoma (oral) cells, Na = not active up to 50 µg/mL
# Method: as §6
row,SMILES,IC50 at 48 h
1,"C=C(C)[C@H]1CC[C@H](C)C[C@@H]1c1c(O)cc(/C=C/c2ccccc2)cc1O [compound 5, machaeridiol A]",> 50 mg/L

# Test system: not listed separately
# Assay: Cytotoxicity, Neutral Red, BT-549
# Format: cell-based
# Details: human, BT-549 breast ductal carcinoma cells, Na = not active up to 50 µg/mL
# Method: as §6
row,SMILES,IC50 at 48 h
1,"C=C(C)[C@H]1CC[C@H](C)C[C@@H]1c1c(O)cc(/C=C/c2ccccc2)cc1O [compound 5, machaeridiol A]",> 50 mg/L

# Test system: SK-MEL, KB, BT-549, SK-OV-3, HeLa, LLC-PK1 and Vero cells
# Assay: Cytotoxicity, summary over the cell line panel
# Format: cell-based
# Details: highest tested concentration of 50 µg/mL; most of the cells
# Method: as §6
row,SMILES,Cytotoxicity (in words)
1,"C=C(C)[C@H]1CC[C@H](C)C[C@@H]1c1c(O)cc(/C=C/c2ccccc2)cc1O [compound 5, machaeridiol A]",inactive

# Test system: Stat3
# Assay: Luciferase reporter assay, Stat3, HeLa
# Format: cell-based, human
# Details: Homo sapiens; HeLa cells; inducer IL6; dash: not inhibited by more than 40% at 50 µmol/L
# Method: (§7) Hela cells (or T98G cells) from ATCC were plated in white opaque 384-well plates at a density of 4300 cells/well in 30 µL of growth medium (DMEM with 10% FBS and 1% Pen/Strep). The next day, the medium was aspirated and replaced with DMEM containing 1% FBS. The cells were transfected with respective plasmids using X-tremeGENE HP DNA transfection reagent (Roche). After 24 h of transfection, the test agents were added to the transfected cells, followed 30 min later by an inducing agent: interleukin 6 (IL-6) for Stat3, TGF-β for Smad, m-wnt3a for Wnt and PMA for AP-1, NF-κB, E2F, Myc, ETS, Notch and Hedgehog. No inducer was added for FoXO and pTK. After 4 h or 6 h of induction, the cells were lysed via the addition of the One-Glo luciferase assay system (Promega; Madison, WI). The light output was detected in a GloMax®-Multi+ Detection System with Instinct® Software (Promega E 8051). This luciferase assay determines if the test agent is able to inhibit the activation of cancer-related signaling pathways. In the case of FoxO, the enhanced luciferase activity via the test agent was assessed.
row,SMILES,IC50
1,"C=C(C)[C@H]1CC[C@H](C)C[C@@H]1c1c(O)cc(/C=C/c2ccccc2)cc1O [compound 5, machaeridiol A]",10.5 µM

# Test system: Smad2/3
# Assay: Luciferase reporter assay, Smad2/3, HeLa
# Format: cell-based, human
# Details: Homo sapiens; HeLa cells; inducer TGF-beta; dash: not inhibited by more than 40% at 50 µmol/L
# Method: as §7
row,SMILES,IC50
1,"C=C(C)[C@H]1CC[C@H](C)C[C@@H]1c1c(O)cc(/C=C/c2ccccc2)cc1O [compound 5, machaeridiol A]",4.5 µM

# Test system: AP-1
# Assay: Luciferase reporter assay, AP-1, HeLa
# Format: cell-based, human
# Details: Homo sapiens, read-out: IC50, Ap-1 (PMA)
# Method: as §7
row,SMILES,IC50
1,"C=C(C)[C@H]1CC[C@H](C)C[C@@H]1c1c(O)cc(/C=C/c2ccccc2)cc1O [compound 5, machaeridiol A]",11 µM

# Test system: NF-κB
# Assay: Luciferase reporter assay, NF-κB, HeLa
# Format: cell-based
# Details: Homo sapiens; HeLa cells; inducer PMA; dash: not inhibited by more than 40% at 50 µmol/L
# Method: as §7
row,SMILES,IC50
1,"C=C(C)[C@H]1CC[C@H](C)C[C@@H]1c1c(O)cc(/C=C/c2ccccc2)cc1O [compound 5, machaeridiol A]",8.1 µM

# Test system: E2F
# Assay: Luciferase reporter assay, E2F, HeLa
# Format: cell-based, human
# Details: Homo sapiens, HeLa, read-out: IC50, E2F (PMA)
# Method: as §7
row,SMILES,IC50
1,"C=C(C)[C@H]1CC[C@H](C)C[C@@H]1c1c(O)cc(/C=C/c2ccccc2)cc1O [compound 5, machaeridiol A]",10 µM

# Test system: Myc
# Assay: Luciferase reporter assay, Myc, HeLa
# Format: cell-based
# Details: Homo sapiens; HeLa cells; inducer PMA; dash: not inhibited by more than 40% at 50 µmol/L
# Method: as §7
row,SMILES,IC50
1,"C=C(C)[C@H]1CC[C@H](C)C[C@@H]1c1c(O)cc(/C=C/c2ccccc2)cc1O [compound 5, machaeridiol A]",9.5 µM

# Test system: ETS
# Assay: Luciferase reporter assay, ETS, HeLa
# Format: cell-based, human
# Details: Homo sapiens; HeLa cells; inducer PMA; dash: not inhibited by more than 40% at 50 µmol/L
# Method: as §7
row,SMILES,IC50
1,"C=C(C)[C@H]1CC[C@H](C)C[C@@H]1c1c(O)cc(/C=C/c2ccccc2)cc1O [compound 5, machaeridiol A]",11.8 µM

# Test system: Notch
# Assay: Luciferase reporter assay, Notch, HeLa
# Format: cell-based
# Details: Homo sapiens; HeLa cells; inducer PMA; dash: not inhibited by more than 40% at 50 µmol/L
# Method: as §7
row,SMILES,IC50
1,"C=C(C)[C@H]1CC[C@H](C)C[C@@H]1c1c(O)cc(/C=C/c2ccccc2)cc1O [compound 5, machaeridiol A]",> 50 µM

# Test system: FoxO
# Assay: Luciferase reporter assay, FoxO, HeLa
# Format: cell-based
# Details: Homo sapiens; HeLa cells; no inducer; dash: no activity detected; read-out: IC50, FoxO (None)
# Method: as §7
row,SMILES,IC50
1,"C=C(C)[C@H]1CC[C@H](C)C[C@@H]1c1c(O)cc(/C=C/c2ccccc2)cc1O [compound 5, machaeridiol A]",> 50 µM

# Test system: Wnt
# Assay: Luciferase reporter assay, Wnt, HeLa
# Format: cell-based
# Details: Homo sapiens; HeLa cells; inducer m-wnt3a; dash: not inhibited by more than 40% at 50 µmol/L
# Method: as §7
row,SMILES,IC50
1,"C=C(C)[C@H]1CC[C@H](C)C[C@@H]1c1c(O)cc(/C=C/c2ccccc2)cc1O [compound 5, machaeridiol A]",3.5 µM

# Test system: Hedgehog
# Assay: Luciferase reporter assay, Hedgehog, HeLa
# Format: cell-based, human
# Details: Homo sapiens; HeLa cells; inducer PMA; dash: not inhibited by more than 40% at 50 µmol/L
# Method: as §7
row,SMILES,IC50
1,"C=C(C)[C@H]1CC[C@H](C)C[C@@H]1c1c(O)cc(/C=C/c2ccccc2)cc1O [compound 5, machaeridiol A]",11 µM

# Test system: not listed separately
# Assay: Solubility in aqueous assay buffer
# Details: aqueous buffer of the radioligand binding assay
row,SMILES,solubility
1,"C=C(C)[C@H]1CC[C@H](C)C[C@@H]1c1c(O)cc(/C=C/c2ccccc2)cc1O [compound 5, machaeridiol A]",< 33.3 µM
